Source: ChEMBL document CHEMBL3286097, “Dual carbonic anhydrase/matrix metalloproteinase inhibitors incorporating bisphosphonic acid moieties targeting bone tumors” (Bioorg Med Chem Lett, 2014)
Activity calls are given as the source filed them. No cut-off for these calls is given here.

The compounds below were run against 72 kDa type IV collagenase (Homo sapiens, UniProt P08253).
Chain of 72 kDa type IV collagenase (P08253 whole entry): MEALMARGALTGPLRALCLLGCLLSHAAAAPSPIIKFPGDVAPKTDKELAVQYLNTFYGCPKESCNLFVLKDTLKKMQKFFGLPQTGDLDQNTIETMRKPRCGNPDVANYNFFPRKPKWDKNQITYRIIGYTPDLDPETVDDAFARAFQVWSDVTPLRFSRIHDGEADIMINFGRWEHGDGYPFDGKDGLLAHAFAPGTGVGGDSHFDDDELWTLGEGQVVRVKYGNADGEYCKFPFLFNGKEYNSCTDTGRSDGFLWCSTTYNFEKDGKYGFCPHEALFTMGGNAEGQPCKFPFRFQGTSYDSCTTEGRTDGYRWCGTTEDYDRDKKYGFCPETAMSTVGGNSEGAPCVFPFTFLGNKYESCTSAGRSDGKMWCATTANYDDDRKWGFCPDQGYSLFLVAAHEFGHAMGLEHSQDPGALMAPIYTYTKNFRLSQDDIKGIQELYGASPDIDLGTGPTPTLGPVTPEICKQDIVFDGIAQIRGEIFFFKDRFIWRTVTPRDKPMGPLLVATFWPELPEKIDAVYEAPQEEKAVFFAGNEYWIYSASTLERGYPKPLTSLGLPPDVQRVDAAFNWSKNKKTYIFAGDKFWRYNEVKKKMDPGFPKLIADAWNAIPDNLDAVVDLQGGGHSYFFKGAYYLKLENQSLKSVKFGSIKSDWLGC

Compound	IC50 [µM]
O=P(O)(O)C(NS(=O)(=O)c1ccc(-c2ccc(Cl)cc2)cc1)P(=O)(O)O	0.037
O=[N+]([O-])c1ccc(-c2ccc(S(=O)(=O)NC(P(=O)(O)O)P(=O)(O)O)cc2)cc1	0.192
O=P(O)(O)CP(=O)(O)O [MEDRONIC ACID]	49
O=C(NC(P(=O)(O)O)P(=O)(O)O)c1ccc(Br)cc1	30
O=P(O)(O)C(P(=O)(O)O)S(=O)(=O)c1ccc(Br)cc1	52
O=[N+]([O-])c1cccc(S(=O)(=O)NC(P(=O)(O)O)P(=O)(O)O)c1	16
O=P(O)(O)C(NS(=O)(=O)c1ccc(-c2cccs2)cc1)P(=O)(O)O	0.23

Results, then the compound that gave them:

IC50 [µM]	Compound
15.8	O=P(O)(O)C(NS(=O)(=O)c1ccccc1)P(=O)(O)O
19	COc1ccc(S(=O)(=O)NC(P(=O)(O)O)P(=O)(O)O)cc1
4.8	O=P(O)(O)C(NS(=O)(=O)c1ccc(Br)cc1)P(=O)(O)O
9.5	O=P(O)(O)C(NS(=O)(=O)c1ccc(Cl)cc1)P(=O)(O)O
4.9	O=[N+]([O-])c1ccc(S(=O)(=O)NC(P(=O)(O)O)P(=O)(O)O)cc1
0.11	COc1ccc(-c2ccc(S(=O)(=O)NC(P(=O)(O)O)P(=O)(O)O)cc2)cc1
18	Cc1ccc(S(=O)(=O)NC(P(=O)(O)O)P(=O)(O)O)cc1

Each compound was assayed against Carbonic anhydrase 9 (Homo sapiens, UniProt Q16790).
Description: Inhibition of human recombinant carbonic anhydrase 9 pretreated for 15 mins by stopped flow CO2 hydrase assay

Compound	IC50 [nM]
O=P(O)(O)C(NS(=O)(=O)c1ccc(-c2ccc(Cl)cc2)cc1)P(=O)(O)O	6130
O=[N+]([O-])c1ccc(-c2ccc(S(=O)(=O)NC(P(=O)(O)O)P(=O)(O)O)cc2)cc1	596
O=P(O)(O)CP(=O)(O)O [MEDRONIC ACID]	860000
O=C(NC(P(=O)(O)O)P(=O)(O)O)c1ccc(Br)cc1	> 10000
O=P(O)(O)C(P(=O)(O)O)S(=O)(=O)c1ccc(Br)cc1	> 10000
O=[N+]([O-])c1cccc(S(=O)(=O)NC(P(=O)(O)O)P(=O)(O)O)c1	2670
O=P(O)(O)C(NS(=O)(=O)c1ccc(-c2cccs2)cc1)P(=O)(O)O	601

The next lines start with the values.

IC50 [nM]	Compound
397	O=P(O)(O)C(NS(=O)(=O)c1ccccc1)P(=O)(O)O
90	COc1ccc(S(=O)(=O)NC(P(=O)(O)O)P(=O)(O)O)cc1
234	O=P(O)(O)C(NS(=O)(=O)c1ccc(Br)cc1)P(=O)(O)O
95	O=P(O)(O)C(NS(=O)(=O)c1ccc(Cl)cc1)P(=O)(O)O
78	O=[N+]([O-])c1ccc(S(=O)(=O)NC(P(=O)(O)O)P(=O)(O)O)cc1
347	O=P(O)(O)C(NS(=O)(=O)c1ccc(-c2ccccc2)cc1)P(=O)(O)O
84	COc1ccc(-c2ccc(S(=O)(=O)NC(P(=O)(O)O)P(=O)(O)O)cc2)cc1
200	Cc1ccc(S(=O)(=O)NC(P(=O)(O)O)P(=O)(O)O)cc1

What follows are compounds tested against T1, Carbonic anhydrase 1 (Homo sapiens, UniProt P00915) (assay: Activation of human recombinant carbonic anhydrase 1 pretreated for 15 mins by stopped flow CO2 hydrase assay).
Target sequence in this assay (P00915 2-261 limits assumed): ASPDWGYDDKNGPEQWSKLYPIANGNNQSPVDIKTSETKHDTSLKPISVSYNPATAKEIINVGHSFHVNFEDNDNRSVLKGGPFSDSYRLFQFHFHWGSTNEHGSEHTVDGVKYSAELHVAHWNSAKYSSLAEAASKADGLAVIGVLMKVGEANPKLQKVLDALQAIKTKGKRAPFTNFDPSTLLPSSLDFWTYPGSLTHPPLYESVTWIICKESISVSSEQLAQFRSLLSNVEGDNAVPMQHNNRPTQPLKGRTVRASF

Compound	Activity
O=P(O)(O)CP(=O)(O)O [MEDRONIC ACID]	Active

Each compound was assayed against T1, Carbonic anhydrase 1.
Target sequence in this assay (P00915 whole entry): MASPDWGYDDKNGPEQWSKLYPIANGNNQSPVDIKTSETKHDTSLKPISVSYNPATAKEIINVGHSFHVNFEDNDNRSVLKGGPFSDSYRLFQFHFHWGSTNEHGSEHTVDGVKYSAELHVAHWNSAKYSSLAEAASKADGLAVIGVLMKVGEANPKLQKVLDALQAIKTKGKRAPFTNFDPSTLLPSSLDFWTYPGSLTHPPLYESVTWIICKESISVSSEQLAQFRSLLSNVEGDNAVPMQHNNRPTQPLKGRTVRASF
Description: Inhibition of human recombinant carbonic anhydrase 1 pretreated for 15 mins by stopped flow CO2 hydrase assay

Compound	IC50 [µM]
O=P(O)(O)C(NS(=O)(=O)c1ccc(-c2ccc(Cl)cc2)cc1)P(=O)(O)O	1.75
O=P(O)(O)C(O)(Cn1ccnc1)P(=O)(O)O [ZOLEDRONIC ACID]	> 10
O=[N+]([O-])c1ccc(-c2ccc(S(=O)(=O)NC(P(=O)(O)O)P(=O)(O)O)cc2)cc1	9.03
O=C(NC(P(=O)(O)O)P(=O)(O)O)c1ccc(Br)cc1	> 10
O=P(O)(O)C(P(=O)(O)O)S(=O)(=O)c1ccc(Br)cc1	> 10
O=[N+]([O-])c1cccc(S(=O)(=O)NC(P(=O)(O)O)P(=O)(O)O)c1	> 10
O=P(O)(O)C(NS(=O)(=O)c1ccc(-c2cccs2)cc1)P(=O)(O)O	6.17

Now from value to compound:

IC50 [µM]	Compound
> 10	O=P(O)(O)C(NS(=O)(=O)c1ccccc1)P(=O)(O)O
> 10	COc1ccc(S(=O)(=O)NC(P(=O)(O)O)P(=O)(O)O)cc1
> 10	O=P(O)(O)C(NS(=O)(=O)c1ccc(Br)cc1)P(=O)(O)O
> 10	O=P(O)(O)C(NS(=O)(=O)c1ccc(Cl)cc1)P(=O)(O)O
> 10	O=[N+]([O-])c1ccc(S(=O)(=O)NC(P(=O)(O)O)P(=O)(O)O)cc1
6.8	O=P(O)(O)C(NS(=O)(=O)c1ccc(-c2ccccc2)cc1)P(=O)(O)O
0.041	COc1ccc(-c2ccc(S(=O)(=O)NC(P(=O)(O)O)P(=O)(O)O)cc2)cc1
> 10	Cc1ccc(S(=O)(=O)NC(P(=O)(O)O)P(=O)(O)O)cc1

These compounds were tested on J774 (assay: Cytotoxicity against mouse J774 cells assessed as reduction in cell viability).
Format: functional, cell-based

Compound	IC50 [µM]
O=P(O)(O)C(NS(=O)(=O)c1ccc(-c2ccc(Cl)cc2)cc1)P(=O)(O)O	1.7
O=P(O)(O)C(O)(Cn1ccnc1)P(=O)(O)O [ZOLEDRONIC ACID]	7.8
O=[N+]([O-])c1ccc(-c2ccc(S(=O)(=O)NC(P(=O)(O)O)P(=O)(O)O)cc2)cc1	32
O=P(O)(O)C(NS(=O)(=O)c1ccc(-c2ccccc2)cc1)P(=O)(O)O	4.9
COc1ccc(-c2ccc(S(=O)(=O)NC(P(=O)(O)O)P(=O)(O)O)cc2)cc1	12
O=P(O)(O)C(NS(=O)(=O)c1ccc(-c2cccs2)cc1)P(=O)(O)O	12

These compounds were tested against Carbonic anhydrase 2 (Homo sapiens, UniProt P00918).
Description: Inhibition of human recombinant carbonic anhydrase 2 pretreated for 15 mins by stopped flow CO2 hydrase assay

Compound	IC50 [µM]
O=P(O)(O)C(NS(=O)(=O)c1ccc(-c2ccc(Cl)cc2)cc1)P(=O)(O)O	2.66
O=[N+]([O-])c1ccc(-c2ccc(S(=O)(=O)NC(P(=O)(O)O)P(=O)(O)O)cc2)cc1	0.071
O=P(O)(O)CP(=O)(O)O [MEDRONIC ACID]	1250
O=C(NC(P(=O)(O)O)P(=O)(O)O)c1ccc(Br)cc1	> 10
O=P(O)(O)C(P(=O)(O)O)S(=O)(=O)c1ccc(Br)cc1	> 10
O=[N+]([O-])c1cccc(S(=O)(=O)NC(P(=O)(O)O)P(=O)(O)O)c1	3.82
O=P(O)(O)C(NS(=O)(=O)c1ccc(-c2cccs2)cc1)P(=O)(O)O	0.504

The remaining lines, values ahead:

IC50 [µM]	Compound
> 100	O=P(O)(O)C(NS(=O)(=O)c1ccccc1)P(=O)(O)O
> 10	COc1ccc(S(=O)(=O)NC(P(=O)(O)O)P(=O)(O)O)cc1
> 10	O=P(O)(O)C(NS(=O)(=O)c1ccc(Br)cc1)P(=O)(O)O
6.16	O=P(O)(O)C(NS(=O)(=O)c1ccc(Cl)cc1)P(=O)(O)O
1.83	O=[N+]([O-])c1ccc(S(=O)(=O)NC(P(=O)(O)O)P(=O)(O)O)cc1
1.41	O=P(O)(O)C(NS(=O)(=O)c1ccc(-c2ccccc2)cc1)P(=O)(O)O
0.07	COc1ccc(-c2ccc(S(=O)(=O)NC(P(=O)(O)O)P(=O)(O)O)cc2)cc1
> 100	Cc1ccc(S(=O)(=O)NC(P(=O)(O)O)P(=O)(O)O)cc1

What follows are compounds tested against Carbonic anhydrase 14 (Homo sapiens, UniProt Q9ULX7).
Chain of Carbonic anhydrase 14 (Q9ULX7 whole entry): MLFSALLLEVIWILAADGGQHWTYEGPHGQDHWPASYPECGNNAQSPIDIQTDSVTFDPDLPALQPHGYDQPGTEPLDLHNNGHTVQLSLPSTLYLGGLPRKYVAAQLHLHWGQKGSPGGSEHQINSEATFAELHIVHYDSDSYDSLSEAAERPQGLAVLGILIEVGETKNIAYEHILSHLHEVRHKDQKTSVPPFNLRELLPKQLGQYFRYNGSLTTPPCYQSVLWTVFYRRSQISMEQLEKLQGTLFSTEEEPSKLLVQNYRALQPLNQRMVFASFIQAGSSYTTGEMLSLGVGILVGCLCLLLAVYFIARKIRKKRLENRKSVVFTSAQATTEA
Description: Inhibition of human recombinant carbonic anhydrase 14 pretreated for 15 mins by stopped flow CO2 hydrase assay

Compound	IC50 [nM]
O=P(O)(O)C(NS(=O)(=O)c1ccc(-c2ccc(Cl)cc2)cc1)P(=O)(O)O	2440
O=[N+]([O-])c1ccc(-c2ccc(S(=O)(=O)NC(P(=O)(O)O)P(=O)(O)O)cc2)cc1	82
O=C(NC(P(=O)(O)O)P(=O)(O)O)c1ccc(Br)cc1	6050
O=P(O)(O)C(P(=O)(O)O)S(=O)(=O)c1ccc(Br)cc1	6050
O=[N+]([O-])c1cccc(S(=O)(=O)NC(P(=O)(O)O)P(=O)(O)O)c1	> 10000
O=P(O)(O)C(NS(=O)(=O)c1ccc(-c2cccs2)cc1)P(=O)(O)O	593

Continued, values first:

IC50 [nM]	Compound
3310	O=P(O)(O)C(NS(=O)(=O)c1ccccc1)P(=O)(O)O
516	COc1ccc(S(=O)(=O)NC(P(=O)(O)O)P(=O)(O)O)cc1
898	O=P(O)(O)C(NS(=O)(=O)c1ccc(Br)cc1)P(=O)(O)O
6590	O=P(O)(O)C(NS(=O)(=O)c1ccc(Cl)cc1)P(=O)(O)O
92	O=[N+]([O-])c1ccc(S(=O)(=O)NC(P(=O)(O)O)P(=O)(O)O)cc1
729	O=P(O)(O)C(NS(=O)(=O)c1ccc(-c2ccccc2)cc1)P(=O)(O)O
70	COc1ccc(-c2ccc(S(=O)(=O)NC(P(=O)(O)O)P(=O)(O)O)cc2)cc1
541	Cc1ccc(S(=O)(=O)NC(P(=O)(O)O)P(=O)(O)O)cc1

The compounds below were run against Carbonic anhydrase 12 (Homo sapiens, UniProt O43570).
Chain of Carbonic anhydrase 12 (O43570 whole entry): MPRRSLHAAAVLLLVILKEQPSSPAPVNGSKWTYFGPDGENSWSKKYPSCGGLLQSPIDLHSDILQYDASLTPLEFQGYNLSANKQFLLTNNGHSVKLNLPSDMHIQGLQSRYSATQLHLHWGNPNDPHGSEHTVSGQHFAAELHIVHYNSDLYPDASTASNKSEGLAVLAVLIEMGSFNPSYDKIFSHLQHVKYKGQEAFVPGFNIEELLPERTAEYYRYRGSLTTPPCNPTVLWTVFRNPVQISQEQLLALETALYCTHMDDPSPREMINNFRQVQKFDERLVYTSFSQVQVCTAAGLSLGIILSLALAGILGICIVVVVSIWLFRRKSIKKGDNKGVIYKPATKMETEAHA
Description: Inhibition of human recombinant carbonic anhydrase 12 pretreated for 15 mins by stopped flow CO2 hydrase assay

Compound	IC50 [nM]
O=P(O)(O)C(NS(=O)(=O)c1ccc(-c2ccc(Cl)cc2)cc1)P(=O)(O)O	476
O=[N+]([O-])c1ccc(-c2ccc(S(=O)(=O)NC(P(=O)(O)O)P(=O)(O)O)cc2)cc1	65
O=C(NC(P(=O)(O)O)P(=O)(O)O)c1ccc(Br)cc1	278
O=P(O)(O)C(P(=O)(O)O)S(=O)(=O)c1ccc(Br)cc1	225
O=[N+]([O-])c1cccc(S(=O)(=O)NC(P(=O)(O)O)P(=O)(O)O)c1	794
O=P(O)(O)C(NS(=O)(=O)c1ccc(-c2cccs2)cc1)P(=O)(O)O	87

Results, then the compound that gave them:

IC50 [nM]	Compound
855	O=P(O)(O)C(NS(=O)(=O)c1ccccc1)P(=O)(O)O
376	COc1ccc(S(=O)(=O)NC(P(=O)(O)O)P(=O)(O)O)cc1
62	O=P(O)(O)C(NS(=O)(=O)c1ccc(Br)cc1)P(=O)(O)O
464	O=P(O)(O)C(NS(=O)(=O)c1ccc(Cl)cc1)P(=O)(O)O
92	O=[N+]([O-])c1ccc(S(=O)(=O)NC(P(=O)(O)O)P(=O)(O)O)cc1
386	O=P(O)(O)C(NS(=O)(=O)c1ccc(-c2ccccc2)cc1)P(=O)(O)O
76	COc1ccc(-c2ccc(S(=O)(=O)NC(P(=O)(O)O)P(=O)(O)O)cc2)cc1
461	Cc1ccc(S(=O)(=O)NC(P(=O)(O)O)P(=O)(O)O)cc1
